# In the COVID Moonshot data (paper PMC7615835):
# Where “and” joins values, the source holds several entries; their conditions need not be identical. Equal values may be shown once.
# Biological target: SARS-CoV-2 Main Protease (SARS-CoV-2) (UniProt P0DTD1)
row,Structure (SMILES),IC50
1,O=C(Cc1cc(Cl)cc(Nc2ccn([C@H]3C[C@H](O)[C@@H](CO)O3)c(=O)n2)c1)Nc1cncc2ccccc12 (stereo in doubt),1.84 µM
2,O=C(Cc1cc(Cl)cc(Nc2ccc(F)nc2Br)c1)Nc1cncc2ccccc12,1.86 µM
3,O=C(CCl)N1CCN(Cc2cc(Cl)cc(Cl)c2)CC1,1.89 µM
4,CC(C)(C)NC(=O)CN1CC(C(=O)Nc2cncc3ccccc23)c2cc(Cl)ccc2C1=O (configuration not stated),0.523 µM
5,CC(NC(=O)c1nccc2cccnc12)c1ccc2[nH]c(=O)oc2c1 (configuration not stated),> 99.5 µM
6,O=C(Cc1cc(Cl)cc(Nc2cc(C(F)(F)F)ccc2N2CCCC2)c1)Nc1cncc2ccccc12,3.51 µM
7,O=C(Nc1cccnc1)N1CCC(CN2CCc3ccccc32)CC1,> 99.5 µM
8,Cc1ccc(Nc2ccccc2C(=O)N2CCC(C3CCNC3)CC2)cc1 (configuration not stated),> 99.5 µM
9,O=C1NCC(C(=O)Nc2cnn3ccccc23)c2cc(Cl)ccc21 (configuration not stated),7.09 µM
10,O=C(Nc1[nH]nc2cccc(F)c12)C1CCOc2ccc(Cl)cc21 (configuration not stated),> 99.5 µM
11,CC(C)(C)c1ccc(N(C(=O)c2nc(=O)[nH][nH]2)C(C(=O)NCCc2cccc(F)c2)c2cccnc2)cc1 (configuration not stated),> 99.5 µM
12,C=CC(=O)N(Cc1cccc(Cl)c1)C(C(=O)NCCc1cccc(F)c1)c1cnccc1C (configuration not stated),> 99.5 µM
13,O=C(Cc1cc(Cl)cc(Nc2ncnc3c2ncn3CCO)c1)Nc1cncc2ccccc12,1.82 µM
14,O=C(NCCc1cccc(F)c1)C(c1cccnc1)N(C(=O)c1cocn1)c1ccc(-n2cc[nH]c2=O)cc1 (configuration not stated),45.1 µM
15,O=C(NCCc1cccc(F)c1)C(c1cccnc1)N(C(=O)c1cnc[nH]1)c1ccc2c(c1)CCC(=O)N2CC(F)F (configuration not stated),47.8 µM
16,CC(C)(C)c1ccc(N(C(=O)c2cnsn2)C(C(=O)NCCc2cccc(F)c2)c2cccnc2)cc1 (configuration not stated),13.2 µM
17,CN(C)CCCN(Cc1cccs1)C(=O)Cc1cncc2ccccc12,> 99.5 µM
18,Cc1ccncc1NC(=O)Cc1cc(Cl)cc(NC2CCCC2O)c1 (configuration not stated),19.7 µM
19,O=C(Cc1cc(Cl)cc(Nc2ccc(SC(F)(F)F)cc2)c1)Nc1cncc2ccccc12,1.84 µM
20,COCc1cc(Cl)cc(CN2CCN(C(=O)CCl)CC2)c1,4.77 µM
21,NC(=O)C12COC(CNC(=O)CC3(C(=O)Nc4cncc5ccccc45)CCOc4ccc(Cl)cc43)(C1)C2 (configuration not stated),9.05 µM
22,CC(C)(C)c1ccc(N(C(=O)c2cocn2)C(C(=O)NCCc2cccc(F)c2)c2cnc(N3CCOCC3)nc2)cc1 (configuration not stated),> 99.5 µM
23,CCc1ccc(S(C)(=O)=O)cc1C(=O)N1CCC(C2CCNC2)CC1 (configuration not stated),> 99.5 µM
24,C=CC(=O)N(c1cc(C(C)(C)C)on1)C(C(=O)NCCc1cccc(F)c1)c1cncc(O)c1 (configuration not stated),> 99.5 µM
25,O=C(Cc1cc(Cl)cc(Nc2ccccc2OCC(F)(F)F)c1)Nc1cncc2ccccc12,1.96 µM

row,Structure (SMILES),IC50
1,Cc1[nH]c2ccccc2c1C(=O)CSc1nc2cc(Cl)cnc2[nH]1,> 99.5 µM
2,O=C(Nc1cnc2nccn2c1)c1cn2c(Br)cnc2s1,> 99.5 µM
3,CC1(C(=O)Nc2cncc3cccc(Cl)c23)CNS(=O)(=O)c2ccc(Cl)cc21 (configuration not stated),1.87 µM
4,Cn1ncc2c(=O)[nH]c(NNC(=O)c3cccn4nccc34)nc21,> 99.5 µM
5,NS(=O)(=O)CCc1ccccc1CN1CCN(C(=O)CCl)CC1,2.72 µM
6,O=C(CCl)N1CCN(Cc2cc(O)cc(Cl)c2)CC1,12.9 µM
7,CC1(CS(=O)(=O)N2Cc3ccc(Cl)cc3C3(CCN(c4cncc5cc(S(C)(=O)=O)ccc45)C3=O)C2)CC1 (configuration not stated),0.155 µM
8,Cc1ccncc1NC(=O)Cc1cccc(F)c1,96.9 µM and 94.8 µM
9,COCCN1CCc2ccc(Cl)cc2C1C(=O)Nc1cncc2ccccc12 (configuration not stated),1.88 µM
10,COC(=O)[C@H]1C[C@H](NC(=O)C(c2cccnc2)N(C(=O)c2cocn2)c2ccc(C(C)(C)C)cc2)CN1C(=O)OC(C)(C)C (stereo in doubt),0.837 µM
11,Cn1nc(C(C(=O)NCCc2cccc(F)c2)N(C(=O)c2ccco2)c2ccc(C(C)(C)C)cc2)c2ccccc21 (configuration not stated),> 99.5 µM
12,CN(C)C(C(=O)Nc1cncc2ccccc12)c1ccc(Cl)c(Cl)c1 (configuration not stated),4.27 µM
13,O=C(Nc1cccc2c[nH]nc12)C1CCOc2ccc(Cl)cc21 (configuration not stated),> 99.5 µM
14,O=C(Cc1cc(Cl)cc(Nc2cccc3ccc(O)cc23)c1)Nc1cncc2ccccc12,3.2 µM
15,CN(c1ccc2c(NC(=O)Cc3cccc(Cl)c3)cncc2c1)S(C)(=O)=O,2.7 µM
16,COCOc1ccc(N(C(=O)c2cocn2)C(C(=O)NCCc2cccc(F)c2)c2cccnc2)cc1 (configuration not stated),13.2 µM
17,O=C(Cc1ccc(Cl)c(F)c1)Nc1cncc2ccccc12,2.03 µM
18,O=C(Nc1cncc2ccccc12)C1CN(CC(F)(F)F)Cc2ccc(Cl)cc21 (configuration not stated),3.41 µM
19,Cn1cc(C(=O)N(c2ccc(C(C)(C)C)cc2)C(C(=O)NCCc2cccc(F)c2)c2cccnc2)n(C)c1=O (configuration not stated),> 99.5 µM
20,Cc1cc(N)ncc1NC(=O)Cc1cccc(Cl)c1,> 99.5 µM
21,COc1ccc(N(C(=O)c2ccco2)C(C(=O)NCCc2cccc(F)c2)c2cccnc2)cc1 (configuration not stated),30.5 µM
22,CS(=O)(=O)c1ccccc1C(=O)N1CCC(C2CCNC2)CC1 (configuration not stated),> 99.5 µM
23,C[C@H](C/C=C/C(C)(C)O)[C@H]1CC[C@@]2(C)[C@@H]3C=C[C@@]45OC[C@]3(CC[C@]12C)[C@@H]4CC[C@H](O)C5(C)C (stereo in doubt),> 99.5 µM
24,O=C(Cc1cc(Cl)cc(Nc2n[nH]c3ccc(Br)cc23)c1)Nc1cncc2ccccc12,1.83 µM
25,COCc1csc(CNC(=O)c2ncc(Cl)cc2Cl)c1,> 99.5 µM

row,Structure (SMILES),IC50
1,O=C(Nc1cncc2ccccc12)[C@@H]1COc2ccc(Cl)cc2C1 (stereo in doubt),> 99.5 µM
2,O=C(Cc1cc(Cl)cc(Br)c1)Nc1cncc2ccccc12,> 9.95 µM
3,O=C(NCCc1cccc(F)c1)C(c1cccnc1)N(C(=O)c1cnc[nH]1)c1ccc2c(c1)COCC2 (configuration not stated),> 99 µM
4,O=C(Cc1cc(Cl)cc(Nc2cc(Cl)c(Br)cn2)c1)Nc1cncc2ccccc12,1.97 µM
5,Cc1ccncc1NC(=O)Cc1cc(Cl)cc(OCc2ncn[nH]2)c1,37 µM
6,O=C1N(c2cncc3ccccc23)CCC12CN(S(=O)(=O)CC1(C(F)(F)F)CC1)Cc1ccc(Cl)cc12 (configuration not stated),0.157 µM
7,COc1cccc(C2=N/C(=C/c3sccc3C)C(=O)O2)c1,1.17 µM
8,O=C1NC2(COc3ccc(Cl)cc32)C(=O)N1c1cncc2ccc(F)cc12 (configuration not stated),1.38 µM
9,CCOC(=O)N1Cc2ccc(Cl)cc2C(C(=O)Nc2cncc3ccccc23)C1 (configuration not stated),0.236 µM
10,CCOC1CC2(C1)CC2N(C(=O)c1ccco1)C(C(=O)NCCc1cccc(F)c1)c1cccnc1 (configuration not stated),> 99.5 µM
11,N#CC1(CS(=O)(=O)N2Cc3ccc(Cl)cc3C3(CCN(c4cncc5ccccc45)C3=O)C2)CCCC1 (configuration not stated),0.244 µM
12,Cc1cc(Nc2cc(Cl)cc(CC(=O)Nc3cncc4ccccc34)c2)c(F)cc1Br,2.05 µM
13,O=C(Nc1cncc2c1CCCC2)[C@@H]1CNS(=O)(=O)c2ccc(Cl)cc21 (stereo in doubt),0.205 µM
14,O=C(NCCc1cccc(F)c1)C(c1cccnc1)N(C(=O)c1cocn1)c1cn(Cc2ccccc2)cn1 (configuration not stated),27.3 µM
15,O=C(Cc1cccc(Cl)c1)Nc1cn[nH]c1,> 99.5 µM
16,O=C(Cc1ccc(Cl)c(Cl)c1)Nc1cncc2ccccc12,0.178 µM and 0.384 µM
17,O=C(Cc1cc(Cl)cc(Nc2ccc3nccnc3c2Br)c1)Nc1cncc2ccccc12,1.97 µM
18,Cn1c(=O)oc2cc(S(=O)(=O)Nc3ccc4ncccc4c3)ccc21,> 99.5 µM
19,CSC1=C(C#N)C2(CCCCC2)C(C#N)=C(NC(=O)CCl)N1,0.745 µM and 1.75 µM
20,Cc1noc(C)c1S(=O)(=O)N1CCN(C(=O)CCl)CC1,4.06 µM
21,CC1CN(CCO)CCN1C(=O)CC1(C(=O)Nc2cncc3ccccc23)CCOc2ccc(Cl)cc21 (configuration not stated),14.5 µM
22,O=C(CCl)N1CCN(S(=O)(=O)c2c(F)cccc2F)CC1,3.43 µM and 3.14 µM
23,C=CC(=O)N[C@H](Cc1ccccc1)C(=O)NCCN(C)C (stereo in doubt),> 99.5 µM
24,CNC(=O)CN1CC(C)(C(=O)Nc2cncc3cccc(Cl)c23)c2cc(Cl)ccc2S1(=O)=O (configuration not stated),1.16 µM
25,Cc1ccc(S(=O)(=O)CNC(=O)C(c2cccnc2)N(C(=O)c2cocn2)c2ccc(C(C)(C)C)cc2)cc1 (configuration not stated),62.9 µM

row,Structure (SMILES),IC50
1,Cc1ccncc1NC(=O)Cc1cccc(C#N)c1,63.7 µM and 59 µM
2,O=C(NC[C@@]1(C(=O)Nc2cncc3ccccc23)CCOc2ccc(Cl)cc21)[C@]1(O)CCSC1 (stereo in doubt),1.94 µM
3,O=C1O[C@]2(CCOc3ccc(Cl)cc32)C(=O)N1c1cncc2ccccc12 (stereo in doubt),80.9 µM and > 9.95 µM
4,CCc1ccc([N+](=O)[O-])cc1Nc1cc(Cl)cc(CC(=O)Nc2cncc3ccccc23)c1,1.71 µM
5,CC(C)(C)NC(=O)CN1CC(C(=O)Nc2cncc3cc(F)ccc23)c2cc(Cl)ccc2C1=O (configuration not stated),1.01 µM
6,Cc1ccccc1C(C)NC(C)C(=O)Nc1ccc2[nH]c(=O)[nH]c2c1 (configuration not stated),> 99.5 µM
7,CC(C)(C)c1ccc(N(C(=O)c2cocn2)C(C(=O)NCc2cccnc2)c2cccnc2)cc1 (configuration not stated),25.3 µM
8,CC(C)(C)c1ccc(N(C(=O)c2scnc2Cl)C(C(=O)NCCc2cccc(F)c2)c2cccnc2)cc1 (configuration not stated),> 99.5 µM
9,O=C(Cc1cc(Cl)cc(N2CCN(c3ccc(Br)cn3)CC2)c1)Nc1cncc2ccccc12,3.17 µM
10,CC(C)(C)c1ccc(N(C(=O)c2nnn[nH]2)C(C(=O)NCCc2cccc(F)c2)c2cccnc2)cc1 (configuration not stated),> 99.5 µM
11,CCOc1ccc(N(C(=O)c2cnc[nH]2)C(C(=O)NCCc2cccc(F)c2)c2cccnc2)cn1 (configuration not stated),> 99 µM
12,N#CC1(CS(=O)(=O)N2Cc3ccc(Cl)cc3[C@@H](C(=O)Nc3cncc4ccccc34)C2)CNC1 (stereo in doubt),1.62 µM
13,O=C(Nc1cncc2ccccc12)C1CCN(Cc2ccccc2)c2ccc(Cl)cc21 (configuration not stated),1.06 µM
14,COCCCNC(=O)C(c1cccnc1)N(C(=O)c1cocn1)c1ccc(C(C)(C)C)cc1 (configuration not stated),8.79 µM
15,Cc1nnc(C2Cc3ccccc3CN2C(=O)CCl)o1 (configuration not stated),53.5 µM
16,O=C(NCCc1cccc(F)c1)C(c1cccnc1)N(C(=O)c1ccco1)C1CCN(c2ccccc2)CC1 (configuration not stated),79.6 µM
17,O=C(Cc1cc(Cl)cc(Nc2cc(F)c(Br)c(F)c2)c1)Nc1cncc2ccccc12,2.05 µM
18,O=C(NCc1cccc(Cl)c1)c1cncc2ccccc12,32 µM
19,CS(=O)(=O)CC1(C(=O)Nc2cncc3ccccc23)CCOc2ccc(Cl)cc21 (configuration not stated),15.6 µM
20,CCNC(=O)c1ccc(N(C(=O)c2cocn2)C(C(=O)NCCc2cccc(F)c2)c2cccnc2)cc1 (configuration not stated),> 99.5 µM
21,O=C(NCCc1cccc(F)c1)C(c1cccnc1)N(C(=O)c1ccco1)c1cccc(CSC2CCOCC2)c1 (configuration not stated),> 99.5 µM
22,CC(C)CCN1C(=O)C(=O)c2cc(Br)ccc21,> 99.5 µM
